Results on 14 molecules are retold here after PubChem BioAssay (NCI).

SMILES strings stand for the structures.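 Cells were grown in 96-well plates and exposed to each compound for 48 hours at five concentrations; endpoints were interpolated linearly between bracketing concentrations, or set to the highest concentration if not reached. GI50: concentration for 50% inhibition of growth. The concentration for full growth arrest is given as TGI.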

Some test systems named below: KM12 colon; K-562 leukemia; IGROV1 ovarian; NCI-H460 lung; RXF 393 renal; CAKI-1 renal; MCF7 breast; UO-31 renal; OVCAR-3 ovarian; HCC-2998 colon.
Common to all, as to assay: inhibition of tumour cell growth, NCI panel, 48 h

Consider `COP(=O)(OC)C(Nc1ccc(Cc2ccc(NC(c3ccco3)P(=O)(OC)OC)cc2)cc1)c1ccco1` (centres undefined), for which the TGI is above 100 µM in the assay on KM12 colon; above 100 µM in the assay with K-562 leukemia; above 100 µM in the assay with IGROV1 ovarian; above 100 µM in the assay on NCI-H460 lung; 19.9 µM with RXF 393 renal; 86.3 µM in the assay with CAKI-1 renal. For the same molecule, the TGI in the assay on MCF7 breast, with UO-31 renal and in the assay with OVCAR-3 ovarian was above 100 µM throughout.

In the case of `Nc1nc(Nc2ccccc2)sc1C(=O)c1ccco1`, the TGI in the assay on KM12 colon was 23.5 µM; in the assay with K-562 leukemia, 57.7 µM; in the assay with IGROV1 ovarian, 60.7 µM; with NCI-H460 lung, 28 µM; in the assay with RXF 393 renal, 30.8 µM; in the assay on MCF7 breast it was 26.3 µM. Further, the TGI in the assay on UO-31 renal is 30.2 µM; in the assay with OVCAR-3 ovarian, 31.5 µM.

For `O=C1OC(c2ccccc2)N(C(=O)c2ccccc2)C1Cc1ccc(OCc2ccccc2)cc1` (centres undefined), the TGI in the assay with K-562 leukemia was above 100 µM; with IGROV1 ovarian it was above 100 µM; in the assay with NCI-H460 lung it was above 100 µM; in the assay on HCC-2998 colon it was above 100 µM; with MCF7 breast, 62.3 µM; with UO-31 renal it was above 100 µM.

For the molecule `COc1cc2[nH]c(-c3ccccc3)cc(=O)c2c(OC)c1OC`, the TGI with KM12 colon, in the assay with K-562 leukemia, with IGROV1 ovarian, in the assay with NCI-H460 lung, in the assay on RXF 393 renal and in the assay on HCC-2998 colon was above 100 µM in each case. The TGI in the assay on MCF7 breast, with UO-31 renal and in the assay on OVCAR-3 ovarian was above 100 µM in each case.

As to `Clc1ccc(/C(=C\c2ccccc2)Cn2ccnc2)cc1`, the TGI with KM12 colon was 20.7 µM; with K-562 leukemia, above 100 µM; in the assay on IGROV1 ovarian, above 100 µM; in the assay on NCI-H460 lung, 44.8 µM; in the assay with RXF 393 renal, 42.2 µM; with CAKI-1 renal it was 30.1 µM. Besides, the TGI amounted to 48.8 µM in the assay with HCC-2998 colon, 44.5 µM in the assay on MCF7 breast and 32.4 µM in the assay with UO-31 renal.

Consider `COc1ccc(-n2nc(C)c3c(Nc4ccc(NC(=O)Nc5ccc(Cl)c(C(F)(F)F)c5)cc4)ncnc32)cc1`, for which the GI50 was 1.48 µM with KM12 colon; 2.23 µM in the assay on IGROV1 ovarian; 2.17 µM with NCI-H460 lung; 0.617 µM in the assay with RXF 393 renal; 1.51 µM in the assay with CAKI-1 renal; 2.22 µM in the assay on HCC-2998 colon. For the same molecule, the GI50 with MCF7 breast was 2.12 µM; in the assay with UO-31 renal, 1.7 µM; in the assay with OVCAR-3 ovarian, 1.98 µM. The TGI in the assay on KM12 colon came to 3.96 µM; in the assay with IGROV1 ovarian it was 7.23 µM; in the assay with NCI-H460 lung, 5.07 µM; with RXF 393 renal, 2.17 µM; with CAKI-1 renal it was 3.51 µM; with HCC-2998 colon it was 5.64 µM. The results for the TGI with MCF7 breast, in the assay on UO-31 renal and with OVCAR-3 ovarian were 6.03 µM, 3.69 µM and 5.91 µM, respectively.

Regarding `c1ccc(C2CC(=NC3CCCCC3)Nc3ccccc3N2)cc1` (centres undefined), the TGI in the assay with KM12 colon, in the assay on K-562 leukemia, with IGROV1 ovarian, with NCI-H460 lung, in the assay on RXF 393 renal and in the assay with CAKI-1 renal was above 100 µM each time. Besides, the TGI in the assay with UO-31 renal and with OVCAR-3 ovarian was above 100 µM throughout.

For `COc1cccc2c1OCC1Cc3ccccc3OC21` (centres undefined), the TGI in the assay with KM12 colon, in the assay with K-562 leukemia, with IGROV1 ovarian, in the assay with CAKI-1 renal, with HCC-2998 colon and in the assay with MCF7 breast was above 100 µM in each case. Also, the TGI in the assay on UO-31 renal was above 100 µM; in the assay on OVCAR-3 ovarian, 88.8 µM.

Turning to `COc1cc(C(O)c2ccc3c(c2)OCO3)cc(OC)c1OC` (centres undefined), the TGI in the assay with KM12 colon, in the assay on K-562 leukemia, in the assay on IGROV1 ovarian, with NCI-H460 lung, with CAKI-1 renal and in the assay on HCC-2998 colon was above 100 µM each time. Also, the TGI in the assay on MCF7 breast, with UO-31 renal and in the assay with OVCAR-3 ovarian was above 100 µM throughout.

As to `C=CC(=O)N1C/C(=C\c2ccc(Cl)cc2)C(=O)/C(=C/c2ccc(Cl)cc2)C1`, the TGI was 0.866 µM in the assay with KM12 colon; 0.678 µM in the assay with IGROV1 ovarian; 1.18 µM in the assay with NCI-H460 lung; 0.659 µM in the assay with RXF 393 renal; 1.32 µM in the assay on CAKI-1 renal; 0.739 µM with HCC-2998 colon. The TGI in the assay with MCF7 breast was determined as 0.845 µM; with UO-31 renal it was 1.17 µM; with OVCAR-3 ovarian it was 1.03 µM.

On to `O=C1CS(=O)(=O)C(c2cccc(Oc3ccccc3)c2)N1c1cc(Cl)ccc1Cl` (centres undefined), for which the TGI is 39.4 µM with KM12 colon; above 100 µM in the assay with K-562 leukemia; 53.5 µM with NCI-H460 lung; 37.1 µM with HCC-2998 colon; 35.4 µM in the assay on MCF7 breast; 43.7 µM with UO-31 renal. The same molecule yielded a TGI in the assay on OVCAR-3 ovarian of 35.1 µM.

In the case of `CSc1nc2c(ncn2C2OC(CO)C(O)C(O)C2O)c(=O)[nH]1` (centres undefined), the TGI with KM12 colon, with K-562 leukemia, with IGROV1 ovarian, with NCI-H460 lung, with RXF 393 renal and in the assay with HCC-2998 colon was above 100 µM in each case. Further, the TGI in the assay on MCF7 breast, with UO-31 renal and with OVCAR-3 ovarian was above 100 µM throughout.

As for `O=[N+]([O-])c1ccc2c(c1)c(N=NC(=S)Nc1ccc(Cl)cc1)c(O)n2CN1CCOCC1`, the TGI was 24 µM in the assay on KM12 colon; 18.1 µM in the assay on IGROV1 ovarian; 20.3 µM in the assay with NCI-H460 lung; 19.9 µM in the assay on RXF 393 renal; 12.4 µM in the assay on CAKI-1 renal; 18.8 µM in the assay on MCF7 breast. Moreover, the TGI with UO-31 renal came to 15.7 µM; with OVCAR-3 ovarian, 17.6 µM.

For the molecule `O=C(NN1C(=O)CSC1c1cccc(F)c1)c1ccncc1` (centres undefined), the TGI with KM12 colon, with K-562 leukemia, in the assay on IGROV1 ovarian, with RXF 393 renal, in the assay on CAKI-1 renal and in the assay with HCC-2998 colon was above 100 µM each time. The same molecule yielded a TGI in the assay on UO-31 renal above 100 µM.
